Data from patent EP0329225A2, “Acetylenic esters” (MERCK & CO. INC., priority 1988, dated 1989).
pIC50: −log10 of the molar value.

Molecular target: T1, Acetoacetyl-coenzyme A thiolase (Rattus norvegicus, UniProt Q5XI22)
T1 construct: prepared from the livers of Sprague Dawley rats treated in the diet for one week with 0.075% lovastatin to induce the enzyme; from tissue; host or cells: liver of Sprague Dawley rats fed lovastatin
Assay: Acetoacetyl-coenzyme A thiolase inhibition (coupled spectrophotometric assay, NADH oxidation at 340 nm)
Assay type: biochemical, Sprague Dawley rats
Details: not given
Protocol: Acetoacetyl-coenzyme A thiolase was prepared from the livers of Sprague Dawley rats treated in the diet for one week with 0.075% lovastatin to induce the enzyme. Acetoacetyl-coenzyme A thiolase was purified through the DEAE-cellulose step essentially as described by Mehrabian et al., J. Biol. Chem., 261, 16249-16255 (1986), but modified slightly by carrying out the 30-50% ammonium sulfate precipitation of the enzyme and a dialysis before the DEAE-cellulose step. The 0.06 M eluate described by Mahrabian et al. contained the acetoacetyl-coenzyme A thiolase. The isolate was concentrated by ammonium sulfate precipitation, dissolved in the buffer used for elution, and stored at -70°C.
Inhibition of acetoacetyl coenzyme A thiolase was measured by coupling the formation of acetoacetyl-coenzyme A to its subsequent reduction of β-hydroxybutyryl-coenzyme A dehydrogenase to β-hydroxybutyryl-coenzyme A and monitoring the resultant oxidation of NADH with a spectrophotometer set at 340 nm. Mixtures of 0.016 units of β-hydroxybutyryl-coenzyme A dehydrogenase, 16.2 µg of acetoacetyl coenzyme A thiolase, and test quantities of the test compounds dissolved in dimethyl sulfoxide and water to bring to final volume were incubated with 71.4 mM Tris-HCl (pH 7.5). 0.71 mM EDTA, 10.7 mM magnesium chloride, 0.53 mM dithiothreitol, 0.21 mM NADH (total volume of 0.140 ml) until a stable base line was obtained. Reaction was initiated by addition of 10 µl of acetoacetyl-coenzyme A, giving a concentration of 2.85 mM. Reaction was measured at room temperature for a time period necessary to produce a measurable reaction rate. An IC₅₀, the concentration that inhibits 50% of the acetoacetyl-coenzyme A thiolase activity, was determined for each test compound. The IC₅₀'s for representative compounds of this invention are listed in Table I. The IC₅₀ of 5-(1-hydroxy-2,4,6-heptatriynyl)-2-oxo-1,3-dioxolane-4-heptanoic acid has been reported as 1 x 10⁻⁸ M. See U.S. Patent Application Serial No. 07/053,973, filed May 26, 1987.

T1 sequence (Q5XI22 whole entry): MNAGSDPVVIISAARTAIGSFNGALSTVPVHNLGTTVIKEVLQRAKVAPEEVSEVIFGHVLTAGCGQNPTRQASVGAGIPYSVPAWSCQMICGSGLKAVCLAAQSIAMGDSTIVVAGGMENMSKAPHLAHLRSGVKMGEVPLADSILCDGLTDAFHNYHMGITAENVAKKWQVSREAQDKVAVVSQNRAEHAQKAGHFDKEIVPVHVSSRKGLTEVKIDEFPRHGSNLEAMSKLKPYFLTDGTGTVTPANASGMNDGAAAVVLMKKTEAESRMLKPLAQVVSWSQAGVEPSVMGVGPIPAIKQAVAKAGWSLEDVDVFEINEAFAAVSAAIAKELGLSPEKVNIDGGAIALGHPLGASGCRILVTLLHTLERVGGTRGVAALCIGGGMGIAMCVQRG

| Compound | pIC50 |
| --- | --- |
| COC(=O)CCCCCCCCC(O)C#CC#CC#C[Si](C)(C)C (stereo not drawn) [Ex. 3, 10-Hydroxy-16-(trimethylsilyl)-11,13,15-hexadecatriynoic acid, methyl ester] | 7.77 |
| COC(=O)CCCCCCCCC(O)C#CC#C[Si](C)(C)C (stereo not drawn) [Ex. 5, 10-Hydroxy-14-(trimethylsilyl)-11,13-tetradecadiynoic acid, methyl ester] | < 4.21 |

Same assay, conditions: enzyme from livers of lovastatin-treated rats; room temperature, pH 7.5; read-out: IC₅₀

| Compound | pIC50 |
| --- | --- |
| C#CC#CC#C[C@@H](O)[C@@H](O)[C@@H](O)CCCCCCC(=O)O [Ex. 1, 8(S),9(S),10(R)-Trihydroxy-11,13,15-hexadecatriynoic acid] | 6.82 |
| C#CC#CC#C[C@@H](O)[C@@H](O)[C@@H](O)CCCCCCC(=O)OC [Ex. 2, 8(S),9(S),10(R)-Trihydroxy-11,13,15-hexadecatriynoic acid, methyl ester] | 4.42 |
| C#CC#CC#CC(O)CCCCCCCCC(=O)OC (stereo not drawn) [Ex. 4, 10-Hydroxy-11,13,15-hexadecatriynoic acid, methyl ester] | 7.62 |
| C#CC#CC(O)CCCCCCCCC(=O)OC (stereo not drawn) [Ex. 6, 10-Hydroxy-11,13-tetradecadiynoic acid, methyl ester] | 4.59 |
